Data taken from US12453708B2, “Aminonaphthoquinone compounds for treatment and/or prevention of fibrosis diseases” (CALGENT BIOTECHNOLOGY CO., LTD., priority 2015, dated 2025).

Legend:
[1] = tested on: CCl4-induced liver fibrosis in mice; assay: CCl4-induced liver fibrosis in mice (therapeutic model); type: in vivo, C57BL/6JNarl mice; details: for fibrosis score, Mean ± SEM: day 43
Protocol: (A) sirius red stain; (B), the inhibition of MPTOL056 on CCl4-induced liver fibrosis. […] C57BL/6JNarl mice (8 weeks) were treated with CCl4 (1 μl/μg/BW, q.w.) or PBS (1 μl/μg/BW, q.w.) by i.p. injection for 6 weeks. MPTOL056 (25, 50 and 100 mg/kg/day, q.d.) and silymarin (200 mg/kg/day, q.d.) were administered orally to CCl4-injected mice from 2 weeks to 6 weeks. On day 43, the mice were sacrificed, and the α-SMA analysis of liver tissue was performed by IHC staining (original magnification, x100) (see FIG. 11). […]

[2] = tested on: TGF-β-induced CTGF expression in WI-38 cells; assay: TGF-β-induced CTGF expression in WI-38 cells (Western blot); type: cell-based, human; details: WI-38 lung fibroblasts, 0.3, 1, 3 or 10 μM for 30 min before and during 2 h TGF-β (10 ng/mL)
Protocol: (§1) FIGS. 1 (A) and (B) show the effect of L056 on TGF-β-induced CTGF expression in WI-38 cells. WI-38 lung fibroblasts were incubated with different concentrations of L056 (0.3, 1, 3 or 10 μM) for 30 min before and during incubation for 2 h with TGF-β (10 ng/mL). […] (A), Western blot plot; (B), Quantitative assay of Western blot. WI-38 cells, a normal human embryonic lung fibroblast cell line, were obtained from American Type Culture Collection (Manassas, VA). Cells were grown in MEM nutrient mixture, containing 10% FCS, 2 mM L-glutamine, 0.1 mM NEAA, 1 mM sodium pyruvate, 50 U/ml penicillin G, and 100 µg/ml streptomycin, in a humidified 37° C. incubator with 5% CO2 Cells were used between passages 18 and 30 for all experiments. After reaching confluence, cells were seeded onto 6-cm dishes for immunoblotting. Western blot analyses were performed as described previously (Chen B C, Chang Y S, Kang J C, Hsu M J, Sheu J R, Chen T L, et al. Peptidoglycan induces nuclear factor-kappaB activation and cyclooxygenase-2 expression via Ras, Raf-1, and ERK in RAW 264.7 macrophages. J Biol Chem 2004; 279:20889-97). […] The immunoreactivity was detected using enhanced chemiluminescence (ECL) following the manufacturer's instructions. Quantitative data were obtained using a computing densitometer with scientific imaging systems (Kodak, Rochester, NY). […]

[3] = tested on: thrombin-induced CTGF expression in WI-38 cells; assay: thrombin-induced CTGF expression in WI-38 cells (Western blot); type: cell-based, human; details: WI-38 lung fibroblasts, 0.3, 1, 3 or 10 μM for 30 min before and during 2 h thrombin (1 U/ml)
Protocol: as §1, with “FIGS. 3” for “FIGS. 1”, “on thrombin-induced” for “on TGF-β-induced”, “with thrombin (1 U/ml).” for “with TGF-β (10 ng/mL).”

[4] = CCl4 mice, 25 mg (mg/kg/day, q.d., oral, weeks 2 to 6)
[5] = CCl4 mice, 50 mg (mg/kg/day, q.d., oral, weeks 2 to 6)
[6] = CCl4 mice, 100 mg (mg/kg/day, q.d., oral, weeks 2 to 6)

SMILES: O=C(Nc1ccncc1)c1ccc(CNC2=C(Cl)C(=O)c3ccccc3C2=O)cc1 [Example L056, 4-(((3-chloro-1,4-dioxo-1,4-dihydronaphthalen-2-yl)amino)methyl)-N-(pyridin-4-yl)benzamide]
- Efficacy % (reduction of fibrosis score) [1, 4]: 45.00%
- fibrosis score, Mean ± SEM [1, 4]: 2.40 ± 0.53
- Efficacy % (reduction of fibrosis score) [1, 5]: 46.67%
- fibrosis score, Mean ± SEM [1, 5]: 2.35 ± 0.25
- Efficacy % (reduction of fibrosis score) [1, 6]: 68.33%
- fibrosis score, Mean ± SEM [1, 6]: 1.70 ± 0.18
- efficacy in inhibition compared with silymarin ([1]; CCl4 mice, silymarin 200 mg/kg/day, FIG. 10(B)): higher than silymarin
- inhibition of CCl4-induced liver fibrosis (in words) ([1]; mice, 25, 50 and 100 mg/kg/day oral, FIG. 10(B)): dose-dependent
- TGF-β-induced CTGF production [2]: significantly inhibited
- thrombin-induced CTGF production/expression [3]: significantly inhibited
- thrombin-induced CTGF production/expression ([3]; listed as MPTOL0560): inhibited
